Measured values from the NIST ThermoML archive (doi:10.1016/j.jct.2016.07.011).

Conditions: Liquid; for mass density / viscosity: 101.33 kPa; for mass density: Vibrating tube method; for viscosity: Falling or rolling sphere viscometry; for vapor or sublimation pressure: Ebulliometric method (Recirculating still)

OCC(F)(F)C(F)(F)C(F)(F)C(F)F [2,2,3,3,4,4,5,5-octafluoro-1-pentanol]
Conditions | mass density [kg/m3] | vapor or sublimation pressure [kPa] | viscosity [mPa·s]
293.15 K | 1674.2 | – | –
295.65 K | – | – | 13.11
297.55 K | – | – | 12.16
300.15 K | – | – | 10.64
301.55 K | 1667 | – | –
302.15 K | – | – | 9.897
304.15 K | – | – | 8.739
306.15 K | 1659 | – | 8.04
307.65 K | – | – | 7.416
309.05 K | 1655.2 | – | –
309.15 K | – | – | 7.072
311.65 K | – | – | 6.29
312.65 K | 1649.2 | – | –
313.15 K | – | – | 5.94
316.15 K | 1643 | – | –
318.15 K | – | – | 4.822
319.35 K | 1636.4 | – | –
323.15 K | – | – | 3.855
323.25 K | 1630.4 | – | –
327.05 K | 1623.2 | – | –
328.15 K | – | – | 3.298
330.65 K | 1617.8 | – | –
333.15 K | – | – | 2.782
334.35 K | 1609.6 | – | –
338.25 K | 1603.8 | – | –
342.25 K | 1596 | – | –
413.25 K | – | 101.3 | –
413.57 K | – | 101.3 | –

OCC(F)(F)C(F)F [2,2,3,3-tetrafluoro-1-propanol]
Conditions | mass density [kg/m3] | vapor or sublimation pressure [kPa] | viscosity [mPa·s]
293.15 K | 1493.2 | – | –
295.65 K | – | – | 5.029
298.65 K | – | – | 4.489
300.15 K | – | – | 4.274
301.55 K | 1482.8 | – | –
302.15 K | – | – | 3.794
304.15 K | – | – | 3.595
306.15 K | 1474.2 | – | 3.26
307.65 K | – | – | 3.067
309.05 K | 1468.6 | – | –
309.15 K | – | – | 2.954
311.65 K | – | – | 2.703
312.65 K | 1460.2 | – | –
313.15 K | – | – | 2.568
316.15 K | 1454.2 | – | –
318.15 K | – | – | 2.153
319.35 K | 1447.6 | – | –
323.15 K | – | – | 1.848
323.25 K | 1441.8 | – | –
327.05 K | 1434 | – | –
328.15 K | – | – | 1.623
330.65 K | 1427.4 | – | –
333.15 K | – | – | 1.408
334.35 K | 1416.8 | – | –
338.25 K | 1409 | – | –
342.25 K | 1401 | – | –
382.28 K | – | 101.3 | –

CO [methanol]
Conditions | vapor or sublimation pressure [kPa]
337.45 K | 101.3
